In patent US20240122179A1, “AUXINIC HERBICIDES AND METHODS OF USE THEREOF” (CORTEVA AGRISCIENCE LLC, priority 2021, published 2024) one finds pest or weed control and plant injury data, which are given here for seven compounds.

The subject of assay [1] is Amaranthus palmeri (AMAPA). The experiment in a line: Postemergence herbicide evaluation, percent reduction in plant size vs untreated control, 21 days after treatment. The assay is classed as in vivo, Amaranthus palmeri (Palmer amaranth). Conditions: post-emergence, 504 h, read-out: Control/Injury. In outline: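 Percent reduction in plant size relative to untreated plants, measured 21 days after track-sprayer application (187 L/ha) of 140 or 280 g ae/ha to Amaranthus palmeri at the 2 to 8 leaf stage. Randomized complete block, 3 or 4 replicates, greenhouse at 25 to 28° C; spray solution acetone/DMSO with isopropanol, water and crop oil concentrate.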

The test system of assay [2] is Glycine max. Briefly: whole plant or invertebrate. Conditions: Glycine max, post-emergence, 504 h, read-out: Control/Injury. How it is done:
Plants were grown in a soil media composed of 90% by volume Promix BX (Premier Tech Horticulture, Quakertown, PA) and 10% Profile Greens Grade (Profile Products LLC, Buffalo Grove, IL). Promix BX contains approximately 83% Sphagnum Peat Moss, 13% Perlite, 5% vermiculite, and proprietary amounts of limestone, starter fertilizer, and wetting agent. Profile Greens Grade is a sand-sized granule formed from calcining illite and montmorillonite clay. Several seeds of each species were planted in 10 cm square pots and top watered twice daily. Plant material was propagated in a warm greenhouse with temperature ranging from 25 to 28° C. and 50 to 60% relative humidity at the Corteva Global Headquarters (Indianapolis, Indiana, USA). Natural light was supplemented with 1000-watt metal halide overhead lamps with an average illumination of 500 μE m^−2 s^−1 photosynthetic active radiation for 16 consecutive hours each day. Plants were top-watered prior to herbicide application and sub-watered after herbicide application.
Appropriate amounts of test materials were weighed out into glass vials in their technical form to deliver either 140 or 280 g acid equivalent (ae)/ha. The samples were dissolved in 3 ml of Solvent 1. Solvent 1 is 97% acetone and 3% dimethyl sulfoxide and serves as a general-purpose solvent (GPS) for dissolving technical materials. […] The samples were then diluted to their final concentration using 17 ml of solvent 2 for a total of 20 ml of spray solution. Solvent 2 contains 41.58% GPS, 45.53% water, 11.88% isopropyl alcohol, 0.99% crop oil concentrate and 0.02% Trition X-155 surfactant. All percentages are listed on a volume basis. Dicamba diglycolamine was applied as a formulated herbicide, Clarity™ and diluted with solvent 2 to compare all materials in the same spray solution.
Herbicide applications were made to 3 to 4 replicates of each plant species at the 2 to 8 leaf stage, depending on the species. Treatments were applied with a research track-sprayer (Generation III Research Sprayer manufactured by DeVries Manufacturing in Hollandale, MN, USA) calibrated to deliver a spray volume of 187 L/ha. The track-sprayer was fitted with an 8003E nozzle from Spray Systems Company (North Avenue and Schmale Road, P.O. Box 7900, Wheaton, IL 60187), and used a spray pressure of 276 kPa pressure and a speed of 3.1 km/h. The nozzle height was 46 cm above the plant canopy. The experimental design used for the trials was a randomized complete block with 3 or 4 replications per treatment. After application, plants were placed on carts according to the randomization and returned to the greenhouse. Plants were sub-watered after treatment with Indianapolis city water or fertilized three times a week with a commercial fertilizer solution (Jack's Professional 15-5-15 4 Ca 2 Mg fertilizer (manufactured by JR PETERS INC., 6656 Grant Way, Allentown, PA 18106; www.jrpeters.com). Percent visual control assessments were made on a scale of 0 to 100% (where 0 was no control and 100 was complete plant death) at 7, 14, and 21 days after treatment.
In conformity with the methods outlined in Example 49, the effect of representative experimental compounds on the growth of Glycine max was determined at 2 different levels (respectively, 140 and 280 g acid equivalent (ae)/ha) of the experimental actives tested. Plants were treated with one of the compounds, a control plant was not treated. Twenty-one days after treatment, the plants were measured. The data is present as a percent reduction in plant size relative to the untreated control.

The subject of assay [3] is Conyza canadensis (L.) (ERICA). Briefly: Postemergence herbicide evaluation, percent reduction in plant size vs untreated control, 21 days after treatment. In kind it is in vivo, Conyza canadensis (L.) (Horseweed). Conditions: Erigeron canadensis, post-emergence, 504 h, read-out: Control/Injury. An outline of the steps:
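Track-sprayer applications (187 L/ha, 276 kPa) of 140 or 280 g ae/ha, technical material dissolved in acetone/DMSO then diluted with crop oil and surfactant-containing solvent, to greenhouse Conyza canadensis at 2-8 leaves. After 21 days, size reduction relative to untreated plants was recorded; 3-4 randomized replicates.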

For assay [4], the system named is Amaranthus rudis (AMATA). The description is as above. The assay is classed as in vivo, Amaranthus rudis (tall water hemp). The note with it: Amaranthus tuberculatus, post-emergence, 504 h, read-out: Control/Injury. An outline of the steps: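 Growth-reduction values are percent decrease in plant size relative to untreated plants, scored 21 days post-application. Amaranthus rudis (2-8 leaves) received postemergence sprays at 140 or 280 g ae/ha, 187 L/ha, in a mixed acetone/DMSO/water/isopropanol carrier with crop oil concentrate. Greenhouse conditions were 25-28° C, 50-60% RH; 3-4 randomized replicates.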

The test system of assay [5] is Kochia scoparia (KCHSC). Described as above. The assay is classed as in vivo. The note with it: Bassia scoparia, post-emergence, 504 h, read-out: Control/Injury. An outline of the steps: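 Values are percent reduction in plant size against an untreated control, measured 21 days after a single postemergence spray at 140 or 280 g ae/ha (187 L/ha, 276 kPa). Treatments used 3-4 randomized complete-block replicates on 2 to 8 leaf-stage plants kept in a 25-28 °C greenhouse, with compounds in acetone/DMSO-based solvent containing crop oil and surfactant.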

The test system of assay [6] is Ambrosia artemisiifolia (AMBEL). Described as above. The assay is classed as in vivo, Ambrosia artemisiifolia (common ragweed). Conditions: post-emergence, 504 h, read-out: Control/Injury. In outline:
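Test compounds at 140 or 280 g ae/ha were applied by track sprayer (187 L/ha, spray solution containing acetone/DMSO, isopropanol, crop oil, surfactant) to 2–8 leaf plants, 3–4 replicates. Plants were kept in a greenhouse at 25–28 °C. Size reduction was scored against untreated controls at 21 days.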

Setting [7] is: R-AMAPA, rate 140 g ae/ha, postemergence, percent reduction vs untreated control, 21 days after treatment.
The mark [8] stands for this setting: R-AMAPA, rate 280 g ae/ha, postemergence, percent reduction vs untreated control, 21 days after treatment.
The mark [9] stands for this setting: ERICA, rate 140 g ae/ha, postemergence, percent reduction vs untreated control, 21 days after treatment.
Where [10] appears, read: ERICA, rate 280 g ae/ha, postemergence, percent reduction vs untreated control, 21 days after treatment.
Where [11] appears, read: AMATA, rate 140 g ae/ha, postemergence.
[12] abbreviates: AMATA, rate 280 g ae/ha, postemergence.
[13] abbreviates: KCHSC, rate 280 g ae/ha, postemergence, percent reduction vs untreated control, 21 days after treatment.
Setting [14] is: AMBEL, rate 140 g ae/ha, postemergence.
Where [15] appears, read: AMBEL, rate 280 g ae/ha, postemergence.
Where [16] appears, read: KCHSC, rate 140 g ae/ha, postemergence, percent reduction vs untreated control, 21 days after treatment.

Read-outs that look alike come from different tables or passages of the source.

With `COc1c(Cl)ccc(Cl)c1C(=O)NS(=O)(=O)c1ccc(C)cc1` [Compound A-78], the pest or weed control at 140 g/ha in assay [1] (setting [7]) was 23%; in assay [3] (setting [9]), 5%; in assay [4] (setting [11]) it was 12%; in assay [5] (KCHSC, rate 140 g ae/ha, postemergence), 50%; in assay [6] (setting [14]), 45%. In addition, the pest or weed control at 280 g/ha was 32% in assay [1] (setting [8]); 15% in assay [3] (setting [10]); 20% in assay [4] (setting [12]); 85% in assay [5] (setting [13]); 57% in assay [6] (setting [15]). Also, in assay [2], the plant injury at 140 g/ha is 25%. In addition, the plant injury at 280 g/ha in assay [2] came to 67%.
Regarding `COc1c(Cl)ccc(Cl)c1C(=O)NS(=O)(=O)c1nccn1C` [Compound A-79], the pest or weed control at 140 g/ha in assay [1] (setting [7]) came to 13%; in assay [3] (setting [9]) it was 0%; in assay [4] (setting [11]) it was 7%; in assay [5] (setting [16]), 0%; in assay [6] (setting [14]), 15%. Further, the pest or weed control at 280 g/ha is 10% in assay [1] (setting [8]); 2% in assay [3] (setting [10]); 13% in assay [4] (setting [12]); 3% in assay [5] (setting [13]); 22% in assay [6] (setting [15]). In addition, in assay [2], the plant injury at 140 g/ha turned out to be 6%. For the same compound, the plant injury at 280 g/ha in assay [2] was determined as 3%.
With `CCCCCC(=O)NOC(=O)c1c(Cl)ccc(Cl)c1OC` [Compound A-80], the pest or weed control at 140 g/ha is 20% in assay [1] (setting [7]); 20% in assay [3] (setting [9]); 33% in assay [4] (setting [11]); 13% in assay [5] (setting [16]); 63% in assay [6] (setting [14]). Further, the pest or weed control at 280 g/ha is 35% in assay [1] (setting [8]); 23% in assay [3] (setting [10]); 38% in assay [4] (setting [12]); 22% in assay [5] (setting [13]); 62% in assay [6] (setting [15]). In assay [2], the plant injury at 140 g/ha came out at 2%. In addition, the plant injury at 280 g/ha in assay [2] stood at 4%.
`COc1c(Cl)ccc(Cl)c1C(=O)O/N=C/c1cccnc1` [Compound A-81]: the pest or weed control at 140 g/ha in assay [1] (setting [7]) was 17%; in assay [3] (setting [9]), 0%; in assay [4] (setting [11]), 3%; in assay [5] (setting [16]), 2%; in assay [6] (setting [14]) it was 15%. Moreover, the pest or weed control at 280 g/ha in assay [1] (setting [8]) came to 15%; in assay [3] (setting [10]) it was 7%; in assay [4] (setting [12]) it was 8%; in assay [5] (setting [13]) it was 7%; in assay [6] (setting [15]), 27%. Besides, the plant injury at 140 g/ha in assay [2] was determined as 19%. Further, the plant injury at 280 g/ha in assay [2] amounted to 20%.
`COc1c(Cl)ccc(Cl)c1C(=O)O/N=C(\C)C(C)(C)C` [Compound A-82]: the pest or weed control at 140 g/ha in assay [1] (setting [7]) came to 85%; in assay [3] (setting [9]), 91%; in assay [4] (setting [11]), 78%; in assay [5] (setting [16]) it was 98%; in assay [6] (setting [14]), 90%. Also, the pest or weed control at 280 g/ha was 83% in assay [1] (setting [8]); 96% in assay [3] (setting [10]); 72% in assay [4] (setting [12]); 88% in assay [5] (setting [13]); 88% in assay [6] (setting [15]). Further, in assay [2], the plant injury at 140 g/ha is 27%. Also, in assay [2], the plant injury at 280 g/ha was found to be 7%.
For the compound `CO/C(=N\OC(=O)c1c(Cl)ccc(Cl)c1OC)c1ccccc1` [Compound A-83], the pest or weed control at 140 g/ha in assay [1] (setting [7]) amounted to 70%; in assay [3] (setting [9]), 90%; in assay [4] (setting [11]), 65%; in assay [5] (setting [16]) it was 85%; in assay [6] (setting [14]) it was 93%. Further, the pest or weed control at 280 g/ha in assay [1] (setting [8]) was 83%; in assay [3] (setting [10]) it was 97%; in assay [4] (setting [12]), 65%; in assay [5] (setting [13]) it was 94%; in assay [6] (setting [15]), 87%. Moreover, the plant injury at 140 g/ha in assay [2] was determined as 22%. The plant injury at 280 g/ha in assay [2] was determined as 15%.
Consider `COc1c(Cl)ccc(Cl)c1C(=O)O/N=C(\C#N)c1ccccc1` [Compound A-84], for which the pest or weed control at 140 g/ha stood at 33% in assay [1]; 37% in assay [3]; 17% in assay [4]; 68% in assay [5]; 70% in assay [6]. The pest or weed control at 280 g/ha in assay [1] amounted to 28%; in assay [3], 78%; in assay [4], 27%; in assay [5] it was 85%; in assay [6] it was 78%. In addition, the plant injury at 140 g/ha in assay [2] came to 8%. Also, the plant injury at 280 g/ha in assay [2] was 38%.
